Measured values reported in US12344826B2, “Apparatus and methods for in vitro preclinical human trials” (THE GEORGE WASHINGTON UNIVERSITY, A CONGRESSIONALLY …, priority 2017, dated 2025).

Legend:
[1] = tested on: action potential (AP) morphology; conditions: blebbistatin 10 μM used to immobilize tissue; cited from earlier work
human cardiac slices = assay: Acute vs chronic phenylephrine in cultured human cardiac slices, electrophysiology by optical mapping; assay type: cell-based; conditions: 3 μM phenylephrine, acute application vs slices cultured 24 hours in drug medium
Experimental: Utilizing cultured slices and an adult dosage of phenylephrine, a widely used selective α1-adrenergic receptor agonist, a model to study chronic drug effects in human cardiac slices is developed. Slice electrophysiology was first acutely measured using optical mapping after application of 3 μM phenylephrine.

| SMILES | effects in action potential (AP) morphology [1] | Two electrophysiology parameters, acute vs chronic stimulation modes (human cardiac slices) |
| --- | --- | --- |
| Cc1ccc2c(c1)C(=O)C1(O)CCN(c3ccccc3)C1=N2 (centres unmarked) [blebbistatin] | no significant effects | – |
| CNC[C@H](O)c1cccc(O)c1 [phenylephrine] | – | substantial difference |
